Laboratory results reported in patent US10702504B2, “Degradation of tripartite motif-containing protein 24 (TRIM24) by conjugation of TRIM24 inhibitors with E3 ligase ligand and methods of use” (Dana-Farber Cancer Institute, Inc., priority 2016, dated 2020).

biological target: PHD-bromodomain of TRIM24 (Homo sapiens (Human), UniProt O15164); assay: TRIM24 binding alpha assay; settings: Alpha Assay binding to TRIM24; compounds 50 μM to 0.002 μM
Procedure: The alpha TRIM24 binding assay is used to assess the binding of the compounds of the application. Compounds are added at various concentrations as well as a vehicle control. Compounds that bind to TRIM24 compete away the interaction between the PHD-bromodomain of TRIM24 bound to the donor bead, and the H3K23ac histone peptide bound to the acceptor bead, which causes a decrease in signal. IC50 values are calculated.
The alpha assay was used to assess the binding of the compounds of the application to TRIM24 at various concentrations. All compounds were added at concentrations from 50 μM to 0.002 μM. Compounds that bind to TRIM24 compete with the PHD-bromodomain of TRIM24 in interacting with the donor bead, and the H3K23ac histone peptide bound to the acceptor bead, which causes a decrease in signal. IC50 values were calculated by using Graphpad PRISM's log(inhibitor) vs. response—variable slope (four parameters).

Sequence of PHD-bromodomain of TRIM24 (O15164 824-1006): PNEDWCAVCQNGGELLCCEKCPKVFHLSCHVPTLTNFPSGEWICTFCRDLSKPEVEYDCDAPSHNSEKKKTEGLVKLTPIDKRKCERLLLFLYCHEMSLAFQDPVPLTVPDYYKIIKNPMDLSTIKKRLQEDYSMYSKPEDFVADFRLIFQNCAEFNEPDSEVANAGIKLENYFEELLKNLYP

SMILES	IC50
Cc1nc(S(=O)(=O)Nc2cc3c(cc2Oc2cccc(OCC(C)C)c2)n(C)c(=O)n3C)cn1C [Cmpd C, reference compound]	< 0.05 µM
CCCOc1cccc(Oc2cc3c(cc2NS(=O)(=O)c2cccc(C(=O)NCCCCNC(=O)CC45CC6CC(CC(C6)C4)C5)c2)n(C)c(=O)n3C)c1 [Cmpd E, reference compound]	0.1 to 0.5 µM
CCCOc1cc(OCCCCN(C)C)cc(Oc2cc3c(cc2NS(=O)(=O)c2cccc(C(=O)NCCCCNC(=O)COc4cccc5c4C(=O)N(C4CCC(=O)NC4=O)C5=O)c2)n(C)c(=O)n3C)c1 (centres unmarked) [I-A10, 3-(N-(6-(3-(4-(dimethylamino)butoxy)-5-propoxyphenoxy)-1,3-dimethyl-2-oxo-2,3-dihydro-1H-benzo[d]imidazol-5-yl)sulfamoyl)-N-(4-(2-((2-(2,6-dioxopiperidin-3-yl)-1,3-dioxoisoindolin-4-yl)oxy)acetamido)butyl)benzamide]	< 0.05 µM
CCCOc1cc(OCCCCN(C)C)cc(Oc2cc3c(cc2NS(=O)(=O)c2cccc(C(=O)NCCCCCCCCNC(=O)COc4cccc5c4C(=O)N(C4CCC(=O)NC4=O)C5=O)c2)n(C)c(=O)n3C)c1 (centres unmarked) [I-A11, 3-(N-(6-(3-(4-(dimethylamino)butoxy)-5-propoxyphenoxy)-1,3-dimethyl-2-oxo-2,3-dihydro-1H-benzo[d]imidazol-5-yl)sulfamoyl)-N-(8-(1-((2-(2,6-dioxopiperidin-3-yl)-1,3-dioxoisoindolin-4-yl)oxy)acetamido)octyl)benzamide]	< 0.05 µM
CCCOc1cc(OCCCCN(C)C)cc(Oc2cc3c(cc2NS(=O)(=O)c2cccc(C(=O)NCCCOCCOCCOCCCNC(=O)COc4cccc5c4C(=O)N(C4CCC(=O)NC4=O)C5=O)c2)n(C)c(=O)n3C)c1 (centres unmarked) [I-A12, 3-(N-(6-(3-(4-(dimethylamino)butoxy)-5-propoxyphenoxy)-1,3-dimethyl-2-oxo-2,3-dihydro-1H-benzo[d]imidazol-5-yl)sulfamoyl)-N-(1-((2-(2,6-dioxopiperidin-3-yl)-1,3-dioxoisoindolin-4-yl)oxy)-2-oxo-7,10,13-trioxa-3-azahexadecan-16-yl)benzamide]	< 0.05 µM
CCCOc1cccc(Oc2cc3c(cc2NS(=O)(=O)c2cccc(C(=O)NCCOCCOCCOc4cc(-c5scnc5C)ccc4CNC(=O)[C@@H]4C[C@@H](O)CN4C(=O)[C@H](C(C)C)N4Cc5ccccc5C4=O)c2)n(C)c(=O)n3C)c1 [I-B1, (2S,4R)—N-(2-(2-(2-(2-(3-(N-(1,3-dimethyl-2-oxo-6-(3-propoxyphenoxy)-2,3-dihydro-1H-benzo[d]imidazol-5-yl)sulfamoyl)benzamido)ethoxy)ethoxy)ethoxy)-4-(4-methylthiazol-5-yl)benzyl)-4-hydroxy-1-((S)-3-methyl-2-(1-oxoisoindolin-2-yl)butanoyl)pyrrolidine-2-carboxamide]	0.1 to 0.5 µM
CCCOc1cccc(Oc2cc3c(cc2NS(=O)(=O)c2cccc(C(=O)NCCOCCOCC(=O)N[C@H](C(=O)N4C[C@H](O)C[C@H]4C(=O)NCc4ccc(-c5scnc5C)cc4)C(C)(C)C)c2)n(C)c(=O)n3C)c1 [I-B2, (4R)-1-((S)-12-(tert-butyl)-1-(3-(N-(1,3-dimethyl-2-oxo-6-(3-propoxyphenoxy)-2,3-dihydro-1H-benzo[d]imidazol-5-yl)sulfamoyl)phenyl)-1,10-dioxo-5,8-dioxa-2,11-diazatridecan-13-oyl)-4-hydroxy-N-(4-(4-methylthiazol-5-yl)benzyl)pyrrolidine-2-carboxamide]	< 0.05 µM
CCCOc1cc(OCCCCN(C)C)cc(Oc2cc3c(cc2NS(=O)(=O)c2cccc(C(=O)NCCOCCOCCOCC(=O)N[C@H](C(=O)N4C[C@H](O)C[C@H]4C(=O)NCc4ccc(-c5scnc5C)cc4)C(C)(C)C)c2)n(C)c(=O)n3C)c1 [I-B4, (2S,4R)-1-((S)-15-(tert-butyl)-1-(3-(N-(6-(3-(4-(dimethylamino)butoxy)-5-propoxyphenoxy)-1,3-dimethyl-2-oxo-2,3-dihydro-H-benzo[d]imidazol-5-yl)sulfamoyl)phenyl)-1,13-dioxo-5,8,11-trioxa-2,14-diazahexadecan-16-oyl)-4-hydroxy-N-(4-(4-methylthiazol-5-yl)benzyl)pyrrolidine-2-carboxamide]	< 0.05 µM

Further lines, results first:

IC50	SMILES
> 0.5 µM	COc1ccc(Oc2cc3c(cc2NS(=O)(=O)c2ccc(OC)c(OC)c2)n(C)c(=O)n3C)cc1 [Cmpd A, reference compound]
0.05 to 0.1 µM	COc1ccc(S(=O)(=O)Nc2cc3c(cc2Oc2cccc(OCc4ccccc4)c2)n(C)c(=O)n3C)cc1OC [Cmpd B, reference compound]
< 0.05 µM	CCCOc1cccc(Oc2cc3c(cc2NS(=O)(=O)c2ccc(OC)c(OC)c2)n(C)c(=O)n3C)c1 [Cmpd D, reference compound]
> 0.5 µM	COc1ccc(S(=O)(=O)Nc2cc3c(cc2Oc2ccc(OCC(=O)NCCCCNC(=O)COc4cccc5c4C(=O)N(C4CCC(=O)NC4=O)C5=O)cc2)n(C)c(=O)n3C)cc1OC (centres unmarked) [I-A1, 2-(4-((6-((3,4-dimethoxyphenyl)sulfonamido)-1,3-dimethyl-2-oxo-2,3-dihydro-1H-benzo[d]imidazol-5-yl)oxy)phenoxy)-N-(4-(2-((2-(2,6-dioxopiperidin-3-yl)-1,3-dioxoisoindolin-4-yl)oxy)acetamido)butyl)acetamide]
> 0.5 µM	COc1ccc(S(=O)(=O)Nc2cc3c(cc2Oc2ccc(OCC(=O)NCCCCCCCCNC(=O)COc4cccc5c4C(=O)N(C4CCC(=O)NC4=O)C5=O)cc2)n(C)c(=O)n3C)cc1OC (centres unmarked) [I-A2, 2-(4-((6-((3,4-dimethoxyphenyl)sulfonamido)-1,3-dimethyl-2-oxo-2,3-dihydro-1H-benzo[d]imidazol-5-yl)oxy)phenoxy)-N-(8-(2-((2-(2,6-dioxopiperidin-3-yl)-1,3-dioxoisoindolin-4-yl)oxy)acetamido)octyl)acetamide]
> 0.5 µM	COc1ccc(S(=O)(=O)Nc2cc3c(cc2Oc2ccc(OCC(=O)NCCCOCCOCCOCCCNC(=O)COc4cccc5c4C(=O)N(C4CCC(=O)NC4=O)C5=O)cc2)n(C)c(=O)n3C)cc1OC (centres unmarked) [I-A3, 2-(4-((6-((3,4-dimethoxyphenyl)sulfonamido)-1,3-dimethyl-2-oxo-2,3-dihydro-1H-benzo[d]imidazol-5-yl)oxy)phenoxy)-N-(1-((2-(2,6-dioxopiperidin-3-yl)-1,3-dioxoisoindolin-4-yl)oxy)-2-oxo-7,10,13-trioxa-3-azahexadecan-16-yl)acetamide]
0.05 to 0.1 µM	CCCOc1cccc(Oc2cc3c(cc2NS(=O)(=O)c2cccc(C(=O)NCCCCNC(=O)COc4cccc5c4C(=O)N(C4CCC(=O)NC4=O)C5=O)c2)n(C)c(=O)n3C)c1 (centres unmarked) [I-A4, 3-(N-(1,3-dimethyl-2-oxo-6-(3-propoxyphenoxy)-2,3-dihydro-1H-benzo[d]imidazol-5-yl)sulfamoyl)-N-(4-(2-((2-(2,6-dioxopiperidin-3-yl)-1,3-dioxoisoindolin-4-yl)oxy)acetamido)butyl)benzamide]
0.1 to 0.5 µM	CCCOc1cccc(Oc2cc3c(cc2NS(=O)(=O)c2cccc(C(=O)NCCCCCCCCNC(=O)COc4cccc5c4C(=O)N(C4CCC(=O)NC4=O)C5=O)c2)n(C)c(=O)n3C)c1 (centres unmarked) [I-A5, 3-(N-(1,3-dimethyl-2-oxo-6-(3-propoxyphenoxy)-2,3-dihydro-1H-benzo[d]imidazol-5-yl)sulfamoyl)-N-(8-(2-((2-(2,6-dioxopiperidin-3-yl)-1,3-dioxoisoindolin-4-yl)oxy)acetamido)octyl)benzamide]
< 0.05 µM	CCCOc1cccc(Oc2cc3c(cc2NS(=O)(=O)c2cccc(C(=O)NCCCOCCOCCOCCCNC(=O)COc4cccc5c4C(=O)N(C4CCC(=O)NC4=O)C5=O)c2)n(C)c(=O)n3C)c1 (centres unmarked) [I-A6, 3-(N-(1,3-dimethyl-2-oxo-6-(3-propoxyphenoxy)-2,3-dihydro-1H-benzo[d]imidazol-5-yl)sulfamoyl)-N-(1-((2-(2,6-dioxopiperidin-3-yl)-1,3-dioxoisoindolin-4-yl)oxy)-2-oxo-7,10,13-trioxa-3-azahexadecan-16-yl)benzamide]
> 0.5 µM	Cc1nc(S(=O)(=O)Nc2cc3c(cc2Oc2cccc(OCC(=O)NCCCCNC(=O)COc4cccc5c4C(=O)N(C4CCC(=O)NC4=O)C5=O)c2)n(C)c(=O)n3C)cn1C (centres unmarked) [I-A7, 2-(3-((6-((1,2-dimethyl-1H-imidazole)-4-sulfonamido)-1,3-dimethyl-2-oxo-2,3-dihydro-1H-benzo[d]imidazol-5-yl)oxy)phenoxy)-N-(4-(2-((2-(2,6-dioxopiperidin-3-yl)-1,3-dioxoisoindolin-4-yl)oxy)acetamido)butyl)acetamide]
> 0.5 µM	Cc1nc(S(=O)(=O)Nc2cc3c(cc2Oc2cccc(OCC(=O)NCCCCCCCCNC(=O)COc4cccc5c4C(=O)N(C4CCC(=O)NC4=O)C5=O)c2)n(C)c(=O)n3C)cn1C (centres unmarked) [I-A8, 2-(3-((6-((1,2-dimethyl-1H-imidazole)-4-sulfonamido)-1,3-dimethyl-2-oxo-2,3-dihydro-1H-benzo[d]imidazol-5-yl)oxy)phenoxy)-N-(8-(2-((2-(2,6-dioxopiperidin-3-yl)-1,3-dioxoisoindolin-4-yl)oxy)acetamido)octyl)acetamide]
> 0.5 µM	Cc1nc(S(=O)(=O)Nc2cc3c(cc2Oc2cccc(OCC(=O)NCCCOCCOCCOCCCNC(=O)COc4cccc5c4C(=O)N(C4CCC(=O)NC4=O)C5=O)c2)n(C)c(=O)n3C)cn1C (centres unmarked) [I-A9, 2-(3-((6-((1,2-dimethyl-1H-imidazole)-4-sulfonamido)-1,3-dimethyl-2-oxo-2,3-dihydro-1H-benzo[d]imidazol-5-yl)oxy)phenoxy)-N-(1-((2-(2,6-dioxopiperidin-3-yl)-1,3-dioxoisoindolin-4-yl)oxy)-2-oxo-7,10,13-trioxa-3-azahexadecan-16-yl)acetamide]
